Some test systems named below: COLO 205 colon; MDA-MB-231 breast; MDA-N; MOLT-4 leukemia; NCI-H226 lung; NCI-H522 lung; NCI/ADR-RES ovarian; RXF 393 renal; SN12C renal; SR leukemia; U251 CNS.
Assay in all cases: NCI-60 cell line screen, 48 h

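Values below derive from 48-hour exposures of cells grown in 96-well plates, with endpoints linearly interpolated between the two concentrations bracketing the appropriate inhibition level. TGI marks complete inhibition of growth.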

`Cn1c2ccccc2c2ccc3c(c21)C(=O)c1ccc2c4ccccc4n(C)c2c1C3=O`: the TGI with COLO 205 colon, with MDA-MB-231 breast, in the test on MDA-N, with MOLT-4 leukemia, with NCI-H226 lung and in the test with NCI-H522 lung was > 100 µM each time. The TGI in the test with NCI/ADR-RES ovarian, in the test on RXF 393 renal, with SN12C renal, with SR leukemia and in the test with U251 CNS was > 100 µM throughout.
Consider `O=CC(I)=C(c1ccccc1)c1ccccc1`, for which the TGI with COLO 205 colon was 32.4 µM; with MDA-MB-231 breast, 29 µM; in the test on MDA-N it was 35.4 µM; in the test with MOLT-4 leukemia it was 72.3 µM; in the test with NCI-H226 lung, 57 µM; in the test on NCI-H522 lung, 32.3 µM. Further, the TGI with NCI/ADR-RES ovarian was 45.1 µM; in the test with RXF 393 renal, 41.4 µM; in the test with SN12C renal it was 45.3 µM; in the test with SR leukemia, 27.9 µM; with U251 CNS, 30.2 µM.
Regarding `O=c1c(F)cn2c(=O)n1CCCCCCCn1c(=O)c(F)cn(c1=O)CCCCCCC2`, the TGI with COLO 205 colon, in the test on MDA-MB-231 breast, with MDA-N, in the test on MOLT-4 leukemia, in the test on NCI-H226 lung and with NCI-H522 lung was > 100 µM each time. Besides, the TGI with NCI/ADR-RES ovarian, in the test on RXF 393 renal, in the test on SN12C renal, in the test on SR leukemia and in the test on U251 CNS was > 100 µM in each case.
For `CCOC1C=CC(=O)C(CO)O1` (stereo not drawn), the TGI in the test with COLO 205 colon was found to be 30.4 µM; in the test on MDA-MB-231 breast, 32.1 µM; in the test on MDA-N, 31.5 µM; in the test with MOLT-4 leukemia, 21.2 µM; in the test on NCI-H226 lung, 46.3 µM; in the test on NCI-H522 lung, 3.52 µM. Further, the TGI in the test on NCI/ADR-RES ovarian was 33.2 µM; in the test on RXF 393 renal, 24.2 µM; in the test with SN12C renal it was 26.8 µM; with SR leukemia it was 6.63 µM; in the test on U251 CNS, 27.9 µM.
In the case of `Cc1ccc2cccc(-c3cccc4ccccc34)c2n1`, the TGI in the test with COLO 205 colon was > 100 µM; in the test on MDA-MB-231 breast it was 81 µM; in the test with MDA-N, 22.7 µM; in the test on MOLT-4 leukemia, 40.6 µM; in the test on NCI-H226 lung it was 74.5 µM; in the test with NCI-H522 lung, 66.5 µM. The TGI with NCI/ADR-RES ovarian was > 100 µM; with RXF 393 renal, 35.7 µM; in the test with SN12C renal, > 100 µM; in the test with SR leukemia it was 35.8 µM; with U251 CNS it was 29.9 µM.
With `CC(=O)Nc1nc(Cl)cc(NCC2(CO)CCC2)n1`, the TGI with COLO 205 colon, in the test with MDA-MB-231 breast, in the test with MDA-N, in the test on MOLT-4 leukemia, in the test on NCI-H226 lung and in the test with NCI-H522 lung was > 100 µM throughout. For the same molecule, the TGI in the test on NCI/ADR-RES ovarian, with RXF 393 renal, in the test on SN12C renal, in the test with SR leukemia and with U251 CNS was > 100 µM throughout.
As for `CC(C)C(Br)CCC1=CCC(Br)(Br)C1` (stereo not drawn), the TGI in the test on COLO 205 colon was 29.6 µM; with MDA-MB-231 breast it was 20.7 µM; in the test on MDA-N it was 10.4 µM; in the test on MOLT-4 leukemia, > 100 µM; in the test on NCI-H226 lung it was 26.9 µM; with NCI-H522 lung, 6.81 µM. Further, the TGI in the test on NCI/ADR-RES ovarian was 62.1 µM; with RXF 393 renal, 29 µM; with SN12C renal, 15.2 µM; in the test with SR leukemia it was > 100 µM; in the test on U251 CNS, 28.8 µM.
In the case of `COC(=O)/C=C(/C=C1/C(C#N)=C(N)N(c2ccc(Cl)cc2)C1(C)/C(=C\C(=O)OC)C(=O)OC)C(=O)OC` (stereo not drawn), the TGI in the test with COLO 205 colon turned out to be 29.8 µM; with MDA-MB-231 breast, 53.4 µM; in the test with MDA-N it was 30.8 µM; in the test on MOLT-4 leukemia it was 78.9 µM; with NCI-H226 lung, 86.4 µM; in the test on NCI-H522 lung, 16.4 µM. For the same molecule, the TGI with NCI/ADR-RES ovarian is 36.9 µM; with RXF 393 renal, 35.4 µM; with SN12C renal, 37.6 µM; in the test on SR leukemia, > 100 µM; in the test on U251 CNS, 60.2 µM.
On to `COc1ccc2nc(NC(=O)/C(C#N)=C/c3ccccc3)sc2c1`, for which the TGI was > 100 µM with COLO 205 colon; > 100 µM in the test with MDA-MB-231 breast; > 100 µM in the test on MDA-N; > 100 µM in the test with MOLT-4 leukemia; > 100 µM in the test on NCI-H226 lung; 65.4 µM with NCI-H522 lung. Further, the TGI in the test with NCI/ADR-RES ovarian was > 69.6 µM; in the test on RXF 393 renal, > 100 µM; with SN12C renal, > 100 µM; in the test with SR leukemia, 21.9 µM; with U251 CNS, > 100 µM.
For `CCOC(=O)c1c(N2CCCC2)[nH]c(=O)c(C(c2ccc(OC)cc2)c2c(O)c(C(=O)OCC)c(N3CCCC3)[nH]c2=O)c1O`, the TGI in the test on COLO 205 colon was > 100 µM; in the test on MDA-MB-231 breast it was 88.1 µM; with MDA-N, > 100 µM; in the test on MOLT-4 leukemia it was > 100 µM; with NCI-H226 lung, > 100 µM; in the test on NCI-H522 lung, > 100 µM. The TGI in the test with NCI/ADR-RES ovarian, in the test on RXF 393 renal, in the test on SN12C renal, in the test on SR leukemia and with U251 CNS was > 100 µM throughout.
As for `COc1ccc(N=Nc2c(-c3c(OC)cc4occc4c3OC)[nH]c(=O)c(C#N)c2C)cc1`, the TGI in the test with COLO 205 colon, in the test on MDA-MB-231 breast, in the test with MDA-N, in the test on MOLT-4 leukemia, in the test with NCI-H226 lung and with NCI-H522 lung was > 100 µM in each case. Also, the TGI in the test with NCI/ADR-RES ovarian, in the test with RXF 393 renal, with SN12C renal, with SR leukemia and in the test with U251 CNS was > 100 µM throughout.
On to `COc1ccc2ccc3oc(=O)c(C)cc3c2c1`, for which the TGI in the test with COLO 205 colon, with MDA-MB-231 breast, in the test on MDA-N, with MOLT-4 leukemia, with NCI-H226 lung and in the test with NCI-H522 lung was > 100 µM throughout. Besides, the TGI in the test with NCI/ADR-RES ovarian, in the test on RXF 393 renal, with SN12C renal, in the test with SR leukemia and with U251 CNS was > 100 µM in each case.
As to `CN(C)CCN(c1ccccn1)c1ccccn1`, the TGI in the test with COLO 205 colon, with MDA-MB-231 breast, with MDA-N, with MOLT-4 leukemia, in the test on NCI-H226 lung and in the test on NCI-H522 lung was > 100 µM throughout. Also, the TGI in the test on NCI/ADR-RES ovarian, in the test with RXF 393 renal, in the test with SN12C renal, with SR leukemia and in the test on U251 CNS was > 100 µM in each case.

Values taken from PubChem BioAssay (NCI).
